Source: patent US11547681B2, “N-acylethanolamide derivatives and uses thereof” (ELIEM THERAPEUTICS, INC., priority 2016, dated 2023)

Assay: in vitro
Settings: for Concentration (μM) of analyte PEA, 0 min / Concentration (μM) of analyte PEA, 10 min / Concentration (μM) of analyte PEA, 20 min / Concentration (μM) of analyte PEA, 30 min / Concentration (μM) of analyte PEA, 60 min / % Remaining of Initial (n = 1), 0 min / % Remaining of Initial (n = 1), 10 min / % Remaining of Initial (n = 1), 20 min / % Remaining of Initial (n = 1), 30 min / % Remaining of Initial (n = 1), 60 min: 1 μM; for % Remaining of Initial (n = 1), 0 min: s9, 0 h; for % Remaining of Initial (n = 1), 10 min: s9, 10 min; for % Remaining of Initial (n = 1), 20 min: s9, 20 min; for % Remaining of Initial (n = 1), 30 min: s9, 0.5 h; for % Remaining of Initial (n = 1), 60 min: s9, 1 h; for half-life at 1 μM: s9, Half-life (min)
Summary of the method: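 Cofactor-supplemented liver S9 incubations at 37 °C contained 1 µM compound; timepoints out to 60 min, acid/organic quench, then LC-MS/MS monitoring of prodrug alongside its expected drug, PEA. Data are expressed as % remaining versus the zero-minute sample.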

Which “Concentration (μM) of analyte PEA, 0 min” value (both, human) does the source give for `CCCCCCCCCCCCCCCC(=O)NCCOC(=O)CCC(=O)OCC(O)CO` (stereo not shown) [Compound I-9] here?
Its value is 0.35 µM.

What about the “Concentration (μM) of analyte PEA, 10 min” value (shortened to “Concentration (μM) … 10 min”) (both, human) of the same molecule?
Its value is 0.30 µM.

What about the “Concentration (μM) of analyte PEA, 20 min” value (from here on “Concentration (μM) … 20 min”) (both, human) of the same molecule?
The value was 0.18 µM.

And the “Concentration (μM) of analyte PEA, 30 min” value (“Concentration (μM) … 30 min” for short) (both, human)?
Its value is 0.088 µM.

What about the “Concentration (μM) of analyte PEA, 60 min” value (“Concentration (μM) … 60 min” for short) (both, human) of the same molecule?
The value was 0.028 µM.

And the “% Remaining of Initial (n = 1), 0 min” value (both, human)?
The value was 100%.

What about the “% Remaining of Initial (n = 1), 10 min” value (both, human) of the same molecule?
Its value is less than 1.0%.

What about the “% Remaining of Initial (n = 1), 20 min” value (both, human) of the same molecule?
The value was less than 1.0%.

What about the “% Remaining of Initial (n = 1), 30 min” value (both, human) of the same molecule?
The value was less than 1.0%.

What about the “% Remaining of Initial (n = 1), 60 min” value (both, human) of the same molecule?
The value was less than 1.0%.

What about the half-life at 1 μM (both, human) of the same molecule?
The half-life at 1 μM was less than 1 min.

What about the “Concentration (μM) of analyte PEA, 0 min” value (male, Beagle, dog) of the same molecule?
The value was 0.32 µM.

And the “Concentration (μM) … 10 min” value (male, Beagle, dog)?
Its value is 0.29 µM.

What about the “Concentration (μM) … 20 min” value (male, Beagle, dog) of the same molecule?
The value was 0.21 µM.

And the “Concentration (μM) … 30 min” value (male, Beagle, dog)?
Its value is 0.18 µM.

What about the “Concentration (μM) … 60 min” value (male, Beagle, dog) of the same molecule?
Its value is 0.078 µM.

And the “% Remaining of Initial (n = 1), 0 min” value (male, Beagle, dog)?
Its value is 100%.

And the “% Remaining of Initial (n = 1), 10 min” value (male, Beagle, dog)?
The value was less than 1.0%.

And the “% Remaining of Initial (n = 1), 20 min” value (male, Beagle, dog)?
Its value is less than 1.0%.

What about the “% Remaining of Initial (n = 1), 30 min” value (male, Beagle, dog) of the same molecule?
The value was less than 1.0%.

And the “% Remaining of Initial (n = 1), 60 min” value (male, Beagle, dog)?
Its value is less than 1.0%.

What about the half-life at 1 μM (male, Beagle, dog) of the same molecule?
Its half-life at 1 μM is less than 1 min.

What about the “Concentration (μM) of analyte PEA, 0 min” value (male, CD-1, mouse) of the same molecule?
The value was 0.52 µM.

And the “Concentration (μM) … 10 min” value (male, CD-1, mouse)?
Its value is 0.23 µM.

What about the “Concentration (μM) … 20 min” value (male, CD-1, mouse) of the same molecule?
The value was 0.13 µM.

What about the “Concentration (μM) … 30 min” value (male, CD-1, mouse) of the same molecule?
The value was 0.077 µM.

What about the “Concentration (μM) … 60 min” value (male, CD-1, mouse) of the same molecule?
Its value is 0.022 µM.

And the “% Remaining of Initial (n = 1), 0 min” value (male, CD-1, mouse)?
Its value is 100%.

What about the “% Remaining of Initial (n = 1), 10 min” value (male, CD-1, mouse) of the same molecule?
Its value is less than 1.0%.

And the “% Remaining of Initial (n = 1), 20 min” value (male, CD-1, mouse)?
The value was less than 1.0%.

What about the “% Remaining of Initial (n = 1), 30 min” value (male, CD-1, mouse) of the same molecule?
Its value is less than 1.0%.

And the “% Remaining of Initial (n = 1), 60 min” value (male, CD-1, mouse)?
The value was less than 1.0%.

And the half-life at 1 μM (male, CD-1, mouse)?
The half-life at 1 μM was less than 1 min.

And the “Concentration (μM) of analyte PEA, 0 min” value (male, Sprague-Dawley, rat)?
Its value is 0.20 µM.

What about the “Concentration (μM) … 10 min” value (male, Sprague-Dawley, rat) of the same molecule?
Its value is 0.31 µM.

And the “Concentration (μM) … 20 min” value (male, Sprague-Dawley, rat)?
The value was 0.18 µM.

What about the “Concentration (μM) … 30 min” value (male, Sprague-Dawley, rat) of the same molecule?
Its value is 0.11 µM.

What about the “Concentration (μM) … 60 min” value (male, Sprague-Dawley, rat) of the same molecule?
Its value is 0.029 µM.

And the “% Remaining of Initial (n = 1), 0 min” value (male, Sprague-Dawley, rat)?
The value was 100%.

And the “% Remaining of Initial (n = 1), 10 min” value (male, Sprague-Dawley, rat)?
Its value is 13%.

And the “% Remaining of Initial (n = 1), 20 min” value (male, Sprague-Dawley, rat)?
Its value is 2.1%.

What about the “% Remaining of Initial (n = 1), 30 min” value (male, Sprague-Dawley, rat) of the same molecule?
Its value is less than 1.0%.

What about the “% Remaining of Initial (n = 1), 60 min” value (male, Sprague-Dawley, rat) of the same molecule?
The value was less than 1.0%.

With `CCCCCCCCCCCCCCCC(=O)NCCOC(=O)CCC(=O)OCC(COC(=O)CCC)OC(=O)CCC` (stereo not shown) [Compound I-11] as the molecule, how does the “Concentration (μM) of analyte PEA, 0 min” value (both, human) read?
Its value is 0.047 µM.

And the “Concentration (μM) … 10 min” value (both, human)?
Its value is 0.25 µM.

And the “Concentration (μM) … 20 min” value (both, human)?
Its value is 0.18 µM.

What about the “Concentration (μM) … 30 min” value (both, human) of the same molecule?
The value was 0.14 µM.

What about the “Concentration (μM) … 60 min” value (both, human) of the same molecule?
Its value is 0.033 µM.

And the “% Remaining of Initial (n = 1), 0 min” value (both, human)?
The value was 100%.

What about the “% Remaining of Initial (n = 1), 10 min” value (both, human) of the same molecule?
Its value is 2.8%.

What about the “% Remaining of Initial (n = 1), 20 min” value (both, human) of the same molecule?
Its value is less than 1.0%.

And the “% Remaining of Initial (n = 1), 30 min” value (both, human)?
Its value is less than 1.0%.

What about the “% Remaining of Initial (n = 1), 60 min” value (both, human) of the same molecule?
Its value is less than 1.0%.

What about the “Concentration (μM) of analyte PEA, 0 min” value (male, Beagle, dog) of the same molecule?
Its value is 0.069 µM.

What about the “Concentration (μM) … 10 min” value (male, Beagle, dog) of the same molecule?
Its value is 0.51 µM.

And the “Concentration (μM) … 20 min” value (male, Beagle, dog)?
Its value is 0.34 µM.

What about the “Concentration (μM) … 30 min” value (male, Beagle, dog) of the same molecule?
Its value is 0.29 µM.

And the “Concentration (μM) … 60 min” value (male, Beagle, dog)?
Its value is 0.13 µM.

What about the “% Remaining of Initial (n = 1), 0 min” value (male, Beagle, dog) of the same molecule?
The value was 100%.

And the “% Remaining of Initial (n = 1), 10 min” value (male, Beagle, dog)?
The value was 4.6%.

And the “% Remaining of Initial (n = 1), 20 min” value (male, Beagle, dog)?
Its value is 1.6%.

What about the “% Remaining of Initial (n = 1), 30 min” value (male, Beagle, dog) of the same molecule?
Its value is less than 1.0%.

What about the “% Remaining of Initial (n = 1), 60 min” value (male, Beagle, dog) of the same molecule?
Its value is less than 1.0%.

What about the “Concentration (μM) of analyte PEA, 0 min” value (male, CD-1, mouse) of the same molecule?
The value was 0.18 µM.

What about the “Concentration (μM) … 10 min” value (male, CD-1, mouse) of the same molecule?
Its value is 0.24 µM.

What about the “Concentration (μM) … 20 min” value (male, CD-1, mouse) of the same molecule?
Its value is 0.13 µM.

What about the “Concentration (μM) … 30 min” value (male, CD-1, mouse) of the same molecule?
The value was 0.083 µM.

And the “Concentration (μM) … 60 min” value (male, CD-1, mouse)?
The value was 0.015 µM.

What about the “% Remaining of Initial (n = 1), 0 min” value (male, CD-1, mouse) of the same molecule?
Its value is 100%.

And the “% Remaining of Initial (n = 1), 10 min” value (male, CD-1, mouse)?
Its value is less than 1.0%.

And the “% Remaining of Initial (n = 1), 20 min” value (male, CD-1, mouse)?
Its value is less than 1.0%.

And the “% Remaining of Initial (n = 1), 30 min” value (male, CD-1, mouse)?
Its value is less than 1.0%.

And the “% Remaining of Initial (n = 1), 60 min” value (male, CD-1, mouse)?
Its value is less than 1.0%.

And the half-life at 1 μM (male, CD-1, mouse)?
Its half-life at 1 μM is less than 1 min.

What about the “Concentration (μM) of analyte PEA, 0 min” value (male, Sprague-Dawley, rat) of the same molecule?
The value was 0 µM.

What about the “Concentration (μM) … 10 min” value (male, Sprague-Dawley, rat) of the same molecule?
Its value is 0.14 µM.

What about the “Concentration (μM) … 20 min” value (male, Sprague-Dawley, rat) of the same molecule?
The value was 0.091 µM.

And the “Concentration (μM) … 30 min” value (male, Sprague-Dawley, rat)?
The value was 0.059 µM.

And the “Concentration (μM) … 60 min” value (male, Sprague-Dawley, rat)?
The value was 0.0062 µM.

And the “% Remaining of Initial (n = 1), 0 min” value (male, Sprague-Dawley, rat)?
Its value is 100%.

And the “% Remaining of Initial (n = 1), 10 min” value (male, Sprague-Dawley, rat)?
Its value is less than 1.0%.

What about the “% Remaining of Initial (n = 1), 20 min” value (male, Sprague-Dawley, rat) of the same molecule?
The value was less than 1.0%.

What about the “% Remaining of Initial (n = 1), 30 min” value (male, Sprague-Dawley, rat) of the same molecule?
The value was less than 1.0%.

And the “% Remaining of Initial (n = 1), 60 min” value (male, Sprague-Dawley, rat)?
Its value is less than 1.0%.

What about the half-life at 1 μM (male, Sprague-Dawley, rat) of the same molecule?
Its half-life at 1 μM is less than 1 min.
